Consider 71 compounds from PMC7539012, “Hyperphosphorylated tau aggregation and cytotoxicity modulators screen identified prescription drugs linked to Alzheimer's disease and cognitive functions” (Scientific Reports, 2020).

Counter-ions that a name gives are not always drawn.

One test concerns T1, 1N4R p-tau.
T1 construct: made in house; host or cells: E. coli (PIMAX system)
In words: p-tau aggregation modulator screen of 1280-compound library (ThS fluorescence net change over 16 h).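 On ThS net change: 30 µM compound with 6 µM p-tau over 16 h.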 Format: biochemical. Set-up: key to PTAI>2SD: *: PTAI>2SD.
Conditions: not given
In turn, `CCC1(c2cccc(O)c2)CCCCN(C)C1` (stereo not drawn) [Meptazinol hydrochloride] returned a ThS net change of 462.

Staying with this test, now noted: 1280-compound library screen; ThS fluorescence net change over 16 h.
`CC[C@H](C)C(=O)O[C@H]1C[C@@H](C)C=C2C=C[C@H](C)[C@H](CC[C@@H]3C[C@@H](O)CC(=O)O3)[C@H]21` [Lovastatin] returned a ThS net change of 408. As to `C#C[C@]1(O)CC[C@H]2[C@@H]3CCC4=CCCC[C@@H]4[C@H]3CC[C@@]21C` [Lynestrenol], the ThS net change is on record as 408. Still for that read-out and setting: as for `CC(=O)[C@H]1CC[C@H]2[C@@H]3C[C@H](C)C4=CC(=O)CC[C@]4(C)[C@H]3[C@@H](O)C[C@]12C` [Medrysone], the figure is 388; as for `C=C1C[C@H]2[C@@H]3C=C(C)C4=CC(=O)CC[C@]4(C)[C@H]3CC[C@]2(C)[C@@]1(OC(C)=O)C(C)=O` [Melengestrol acetate], 404.

`CC12CC3CC(C)(C1)CC(N)(C3)C2` [Memantine Hydrochloride]: the ThS net change amounted to 405. The compound `CCCNC(C)(C)COC(=O)c1ccccc1` [Meprylcaine hydrochloride] returned a ThS net change of 405. Still for that read-out and setting: as for `CN1CCCCC1CCN1c2ccccc2Sc2ccc([S+](C)[O-])cc21` (stereo not drawn) [Mesoridazine besylate], the figure is 391; as for `CC[N+](C)(CC)CCOC(=O)C1c2ccccc2Oc2ccccc21` [Methantheline bromide], 400; as for `C1N2CN3CN1CN(C2)C3` [Methenamine], 391. Same read-out and setting: as for `Cn1cc[nH]c1=S` [Methimazole], the figure is 393; as for `CSc1ccc2c(c1)C(N1CCN(C)CC1)Cc1ccccc1S2.O=C(O)/C=C\C(=O)O` (stereo not drawn) [Methiothepin maleate], 379; as for `COc1ccccc1OCC(O)COC(N)=O` (stereo not drawn) [Methocarbamol], 409.

Take `COc1ccc(OC)c(C(O)C(C)N)c1` (stereo not drawn) [Methoxamine hydrochloride]: the ThS net change was found to be 405. The same measure, in the same setting: as for `CCOC(=O)[C@@](C)(N)Cc1ccc(O)c(O)c1` [Methyldopate hydrochloride], the figure is 385; as for `C[C@H]1NC(=O)NC1=O` [Methylhydantoin-5-(D)], 384; as for `CN1CCCC(CC2c3ccccc3Sc3ccccc32)C1` (stereo not drawn) [Metixene hydrochloride], 386. On the same count and under the same terms, as for `CC(=O)Nc1c(I)c(C(=O)N[C@H]2C(O)O[C@H](CO)[C@@H](O)[C@@H]2O)c(I)c(N(C)C(C)=O)c1I` (stereo partly drawn) [Metrizamide], the figure is 400; as for `Cc1cccc(C)c1OCC(C)N` (stereo not drawn) [Mexiletine hydrochloride], 381.

Staying with this test, now noted: 1280-compound library screen; […].
`CN1CCc2c(c3ccccc3n2Cc2ccccc2)C1.O=S(=O)(O)c1cccc2c(S(=O)(=O)O)cccc12` [Mebhydroline 1,5-naphtalenedisulfonate] gave a ThS net change of 385. The same measure, in the same setting: as for `CNC(C)(C)Cc1ccccc1.CNC(C)(C)Cc1ccccc1.O=S(=O)(O)O` [Mephentermine hemisulfate], the figure is 380. `CC[C@@H](CO)NC(=O)[C@@H]1C=C2c3cccc4[nH]cc(c34)C[C@H]2N(C)C1` [Methylergometrine maleate] had a ThS net change of 393.

Still in this test, the particulars now being: flag: p-tau aggregation inhibitor, ThS net change more than 2 SD from mean.
`C=C1c2c(Cl)ccc(O)c2C(=O)C2=C(O)[C@]3(O)C(=O)C(C(N)=O)=C(O)[C@@H](N(C)C)[C@@H]3[C@@H](O)[C@H]12.O=C(O)c1cc(S(=O)(=O)O)ccc1O` [Meclocycline sulfosalicylate]: the “PTAI>2SD” value was “*”.

The test is the same for the next values; noted with them: library screen, ThS fluorescence net change over 16 h with p-tau.
On to `O=c1cc(-c2ccc(O)c(O)c2)oc2cc(O)cc(O)c12` [Luteolin], for which the ThS net change worked out at 296. With `CCN(CCCCOC(=O)c1ccc(OC)c(OC)c1)C(C)Cc1ccc(OC)cc1` (stereo not drawn) [Mebeverine hydrochloride], the ThS net change came to 295.

`C=C1c2c(Cl)ccc(O)c2C(=O)C2=C(O)[C@]3(O)C(=O)C(C(N)=O)=C(O)[C@@H](N(C)C)[C@@H]3[C@@H](O)[C@H]12.O=C(O)c1cc(S(=O)(=O)O)ccc1O` [Meclocycline sulfosalicylate] had a ThS net change of 171.

`OC(c1cc(C(F)(F)F)nc2c(C(F)(F)F)cccc12)C1CCCCN1` (stereo not drawn) [Mefloquine hydrochloride] had a ThS net change of 304.

In the case of `C[C@H](N)[C@H](O)c1cccc(O)c1` [Metaraminol bitartrate], the ThS net change was 321. Still for that read-out and setting: under `CN(Cc1cnc2nc(N)nc(N)c2n1)c1ccc(C(=O)N[C@@H](CCC(=O)O)C(=O)O)cc1` [Methotrexate] stands 326; under `CCN(CC)CCNC(=O)c1cc(Cl)c(N)cc1OC.Cl` [Metoclopramide monohydrochloride], 299. Still for that read-out and setting: as for `Clc1ccc(COC(Cn2ccnc2)c2ccc(Cl)cc2Cl)c(Cl)c1` (stereo not drawn) [Miconazole], the figure is 316.

The test is the same for the next values; noted with them: p-tau aggregation modulator screen of 1280-compound library; ThS fluorescence net change.
Turning to `CN1CCN(C2=Nc3ccccc3Oc3ccc(Cl)cc32)CC1` [Loxapine succinate], the ThS net change is on record as 358.

Compound `CNCCCC12CCC(c3ccccc31)c1ccccc12` [Maprotiline hydrochloride] showed a ThS net change of 370. In turn, `COC(=O)Nc1nc2ccc(C(=O)c3ccccc3)cc2[nH]1` [Mebendazole] displayed a ThS net change of 340. The same measure, in the same setting: under `Cc1cccc(Nc2ccccc2C(=O)O)c1C` [Mefenamic acid] stands 353; under `CCN(CC)CCNC(=O)COc1ccc(OC)cc1.Cl` [Mefexamide hydrochloride], 331. Same read-out and setting: under `CC(=O)O[C@]1(C(C)=O)CC[C@H]2[C@@H]3C=C(C)C4=CC(=O)CC[C@]4(C)[C@H]3CC[C@@]21C` [Megestrol acetate] stands 343; under `CNC[C@H](O)[C@@H](O)[C@H](O)[C@H](O)CO` [Meglumine], 368; under `COc1ccc2[nH]cc(CCNC(C)=O)c2c1` [Melatonin], 356.

As for `Cc1cnc(NC(=O)C2=C(O)c3ccccc3S(=O)(=O)N2C)s1` [Meloxicam], the ThS net change stood at 375. The compound `Cc1ccccc1OCC(O)CO` (stereo not drawn) [Mephenesin] had a ThS net change of 350. Same read-out and setting: as for `Nc1ccc(O)c(C(=O)O)c1` [Mesalamine], the figure is 363; as for `CN1C[C@H](CNC(=O)OCc2ccccc2)C[C@@H]2c3cccc4c3c(cn4C)C[C@H]21` [Metergoline], 349; as for `CC(=O)OC(C)C[N+](C)(C)C` (stereo not drawn) [Methacholine chloride], 370. In turn, `CN(C)CCN(Cc1cccs1)c1ccccn1` [Methapyrilene hydrochloride] showed a ThS net change of 370. Same read-out and setting: as for `CC(=O)/N=c1/sc(S(N)(=O)=O)nn1C` [Methazolamide], the figure is 377. Same read-out and setting: under `COC(=O)Nc1nc2cc(SC(C)C)ccc2[nH]1` [Methiazole] stands 365; under `COc1ccc2c(c1)N(C[C@H](C)CN(C)C)c1ccccc1S2.O=C(O)/C=C\C(=O)O` [Methotrimeprazine maleat salt], 355; under `Cc1cc(C(C)(C)CC(C)(C)C)ccc1OCCOCC[N+](C)(C)Cc1ccccc1.[Cl-]` [Methyl benzethonium chloride], 348. On the same count and under the same terms, under `C[C@H]1C[C@@H]2[C@H]([C@@H](O)C[C@@]3(C)[C@H]2CC[C@]3(O)C(=O)CO)[C@@]2(C)C=CC(=O)C=C12` [Methylprednisolone, 6-alpha] stands 340; under `Cc1cc2c(cc1S(N)(=O)=O)S(=O)(=O)CCC2` [Meticrane], 368. Consider `Cc1ccccc1N1C(=O)c2cc(S(N)(=O)=O)c(Cl)cc2NC1C` (stereo not drawn) [Metolazone], for which the ThS net change is reported as 364. Still for that read-out and setting: under `Cc1ncc([N+](=O)[O-])n1CCO` [Metronidazole] stands 365; under `CC(C)(C(=O)c1cccnc1)c1cccnc1` [Metyrapone], 353; under `CN1CCN2c3ccccc3Cc3ccccc3C2C1.Cl` (stereo not drawn) [Mianserine hydrochloride], 366.

The test is the same for the next values; noted with them: p-tau aggregation modulator screen of 1280-compound library; […].
For `CN(C)CCOC(=O)COc1ccc(Cl)cc1.Cl` [Meclofenoxate hydrochloride], the ThS net change is on record as 359. Same read-out and setting: as for `C[N+]1(C)CCCC(OC(=O)C(O)(c2ccccc2)c2ccccc2)C1` (stereo not drawn) [Mepenzolate bromide], the figure is 366.

Still in this test, the particulars now being: p-tau aggregation modulator screen of the compound library, ThS fluorescence net change.
On to `NCc1ccc(S(N)(=O)=O)cc1` [Mafenide hydrochloride], for which the ThS net change is reported as 415. Same read-out and setting: as for `CNC1(C)C2CCC(C2)C1(C)C` (stereo not drawn) [Mecamylamine hydrochloride], the figure is 418; as for `Cc1cccc(CN2CCN(C(c3ccccc3)c3ccc(Cl)cc3)CC2)c1.Cl.Cl` (stereo not drawn) [Meclozine dihydrochloride], 430. On the same count and under the same terms, as for `CCC1(c2ccccc2)NC(=O)N(C)C1=O` (stereo not drawn) [Mephenytoin], the figure is 453; as for `Cc1cccc(C)c1NC(=O)C1CCCCN1C` (stereo not drawn) [Mepivacaine hydrochloride], 428. On the same count and under the same terms, as for `S=c1[nH]cnc2nc[nH]c12` [Mercaptopurine], the figure is 426. For the compound `C[C@@H](O)[C@H]1C(=O)N2C(C(=O)O)=C(S[C@@H]3CN[C@H](C(=O)N(C)C)C3)[C@H](C)[C@H]12` [Meropenem], the ThS net change is recorded as 490.

Consider `O=S(=O)(O)CCS` [Mesna], for which the ThS net change was found to be 424. On the same count and under the same terms, as for `CN(C)C(=N)N=C(N)N` [Metformin hydrochloride], the figure is 415. On the same count and under the same terms, under `C=C1c2cccc(O)c2C(=O)C2=C(O)[C@]3(O)C(=O)C(C(N)=O)=C(O)[C@@H](N(C)C)[C@@H]3[C@@H](O)[C@H]12` [Methacycline hydrochloride] stands 537. The same measure, in the same setting: as for `C[N+]1(C)[C@@H]2CC[C@H]1C[C@@H](OC(=O)C(CO)c1ccccc1)C2` (stereo partly drawn) [Methylatropine nitrate], the figure is 413. Compound `C[C@](N)(Cc1ccc(O)c(O)c1)C(=O)O` [Methyldopa (L,-)] displayed a ThS net change of 447. Same read-out and setting: under `CC1NC(=O)NC1=O` (stereo not drawn) [Methylhydantoin-5-(L)] stands 449; under `CC1(O)CCOC(=O)C1` (stereo not drawn) [Mevalonic-D, L acid lactone], 438. Same read-out and setting: as for `CC[C@H](C)C(=O)O[C@H]1CCC=C2C=C[C@H](C)[C@H](CC[C@@H]3C[C@@H](O)CC(=O)O3)[C@H]21` [Mevastatin], the figure is 497.
